In patent publication EP0259782A1, “Naphthalene and indane derivatives, medicaments containing these compounds and processes for their preparation” (Dr. Karl Thomae GmbH, priority 1986, dated 1988):

Legend:
Mäusen = settings: in vivo, iv, 10 mg/kg
Source text: Die erfindungsgemäß hergestellten Verbindungen weisen in therapeutischen Dosen keinerlei toxische Nebenwirkungen auf.

Herzfrequenz an Ratten = test: Effect on heart rate in anaesthetised rats; assay type: in vivo; settings: rats anaesthetised with pentobarbital; dose 5,0 mg/kg injected into the Vena jugularis; 5 minutes after application; control heart rate 350-400 S/min; 2 rats per dose
Method: Wirkung auf die Herzfrequenz an Ratten: Die Wirkung der zu untersuchenden Substanzen auf die Herzfrequenz wurde pro Dosis an 2 Ratten mit einem durchschnittlichen Gewicht von 250-300 g untersucht. Hierzu wurden die Ratten mit Pentobarbital (50 mg/kg i.p. und 10 mg/kg s.c.) narkotisiert. Die zu untersuchenden Substanzen […]ösung in die Vena jugularis injiziert (0,1 ml/100 g). Der Blutdruck wurde über in eine A. carotis eingebundene Kanüle gemessen und die Herzfrequenz wurde aus einem mit Nadelelektroden abgeleiteten EKG (II. oder III. Ableitung) registriert. Die Herzfrequenz der […] 350 und 400 Schlägen/Minuten (S/min).

Compound | toxische Nebenwirkungen (Mäusen) | Herzfrequenzsenkung, gemessen 5 Minuten nach Substanzapplikation (Herzfrequenz an Ratten) [S/min]
COc1ccc(CCN(C)CCCC2CCc3cc(OC)c(OC)cc3C2=O)cc1OC (centres unmarked) [Substanz A, 6,7-Dimethoxy-2-[3-((2-(3,4-dimethoxyphenyl)-ethyl)-methylamino)-propyl]-1-oxo-1,2,3,4-tetrahydro-naphthalin] | außer einer geringen Sedation keine toxischen Nebenwirkungen | 157
COc1ccc(CCN(C)CCCC2Cc3cc(OC)c(OC)cc3C2O)cc1OC (centres unmarked) [Substanz C, 5,6-Dimethoxy-2-[3-((2-(3,4-dimethoxyphenyl)-ethyl)-methylamino)-propyl]-1-hydroxy-indan] | außer einer geringen Sedation keine toxischen Nebenwirkungen | 152
COc1ccc(CCN(C)CCCC2CCc3cc(OC)c(OC)cc3C2)cc1OC.Cl (centres unmarked) [Substanz B, 6,7-Dimethoxy-2-[3-((2-(3,4-dimethoxyphenyl)-ethyl)-methylamino)-propyl]-1,2,3,4-tetrahydro-naphthalin-hydrochlorid] |  | 150
